What was measured:
Fisher 344 rats [1] = assay: EEG in rats administered mango leaf extract and/or caffeine, Example 5; format: in vivo, rat; conditions: 0.50 mg/kg oral
Text: After automatic artefact rejection, signals were collected in sweeps of 4 s duration and Fast Fourier transformed using a Hanning window. […] Nine adult male Fisher 344 rats (5 months of age and day-night converted, weight about 350-400 g, were implanted with electrodes into the brain and were given two weeks for recovery from surgery. Three animals dropped the implant after performance of a placebo series. […] A crossover design with at least three days of drug holidays in between drug administrations was used. […] The animals were dosed orally at a constant volume of 1.0 ml/kg per kg body weight. The dosage administered to each animal was determined every day by the weight of that animal at the time of administration. Data were averaged from 5-9 animals, and are expressed as mean values±S.E.M.

[2] = test system: pyramidal cells in hippocampus slices of rat brains; assay: Ex vivo population spikes in hippocampal slice preparation, Example 6
Procedure: Hippocampus slices of rat brains were tested. After daily administration of trial medication for one week, 4 animals were sacrificed under deep anesthesia and the hippocampus was removed and chopped by a vibrating razor blade to give 6 slices of about […] thickness per animal. Slices were taken one day after the last treatment. After adaptation to artificial cerebrospinal fluid for one hour, slices were transferred to an incubation chamber and superfused with cerebrospinal fluid at 35° C. Schaffer collaterals are branches extending from the axons of CA3 pyramidal cells in the hippocampus. Schaffer collaterals project to the CA1 area of the hippocampus, and are an integral part of memory formation. The Schaffer Collaterals were stimulated by single stimuli or theta burst stimuli, where theta burst stimuli are short bursts of stimulation at high frequencies, applied 5 times per second.

Fisher 344 rats [3] = assay: EEG (electropharmacogram) in freely moving rats, Example 1; format: in vivo, rat; conditions: oral gavage, 5-65 min after administration, FIG. 1
Procedure: Fisher 344 rats (11 months of age and day-night converted, weight about 350-400 g, provided by Charles River Laboratories, D-97633, Sulzfeld) were used in a series of experiments on the effects of various herbal and pharmaceutical products on central nervous system activity. Products were provided to the test subjects orally (gavage).
EEG signals were recorded by telemetry from 4 implanted electrodes in the frontal cortex, hippocampus and striatum of freely moving rats from inside a totally copper shielded room. Signals were collected in sweeps of 4 second duration and Fast Fourier transformed using a Hanning window. EEG signals were recorded over a period starting 5 minutes after administration of the test substances, and ending 65 minutes after administration of the test substances. Sampling frequency was 512 Hz. […] In an off-line procedure the spectra were averaged to give longer periods for further analysis and data presentation. Spectral activity within the frontal cortex, hippocampus, striatum and reticular formation was recorded.

Fisher 344 rats [4] = assay: EEG in freely moving rats, two recording periods, Example 2; format: in vivo, rat; conditions: oral, FIG. 2B/2C, period not separated
Procedure: Products were provided to the test subjects orally (gavage).
EEG signals were recorded by telemetry from 4 implanted electrodes in the frontal cortex, hippocampus and striatum of freely moving rats from inside a totally copper shielded room.

brain wave activity = assay: General statements on CNS activity, equivalence, onset and duration after ingestion; format: in vivo
acetylcholinesterase = acetylcholinesterase (Homo sapiens, UniProt P22303); conditions: cited from earlier work
MAOA = biological target: T1, MAOA (Homo sapiens, UniProt P21397); conditions: said to underlie anti-depressant-like effect; cited from earlier work
T1 sequence (P21397 1-527): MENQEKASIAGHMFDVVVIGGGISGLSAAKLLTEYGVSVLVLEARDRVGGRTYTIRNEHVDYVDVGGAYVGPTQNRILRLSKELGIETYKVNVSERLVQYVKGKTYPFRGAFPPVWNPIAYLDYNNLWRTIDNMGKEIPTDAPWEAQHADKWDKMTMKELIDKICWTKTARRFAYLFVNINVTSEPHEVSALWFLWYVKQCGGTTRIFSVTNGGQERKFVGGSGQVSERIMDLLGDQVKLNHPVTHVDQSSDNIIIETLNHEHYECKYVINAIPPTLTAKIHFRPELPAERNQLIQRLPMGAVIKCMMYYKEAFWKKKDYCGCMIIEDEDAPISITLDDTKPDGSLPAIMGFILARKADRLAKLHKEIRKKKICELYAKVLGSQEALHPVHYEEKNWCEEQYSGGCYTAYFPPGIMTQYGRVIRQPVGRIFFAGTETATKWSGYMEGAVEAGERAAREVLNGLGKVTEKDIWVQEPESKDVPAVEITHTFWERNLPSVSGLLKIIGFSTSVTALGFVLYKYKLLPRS

acetylcholinesterase, sequence (P22303 32-614, species assumed): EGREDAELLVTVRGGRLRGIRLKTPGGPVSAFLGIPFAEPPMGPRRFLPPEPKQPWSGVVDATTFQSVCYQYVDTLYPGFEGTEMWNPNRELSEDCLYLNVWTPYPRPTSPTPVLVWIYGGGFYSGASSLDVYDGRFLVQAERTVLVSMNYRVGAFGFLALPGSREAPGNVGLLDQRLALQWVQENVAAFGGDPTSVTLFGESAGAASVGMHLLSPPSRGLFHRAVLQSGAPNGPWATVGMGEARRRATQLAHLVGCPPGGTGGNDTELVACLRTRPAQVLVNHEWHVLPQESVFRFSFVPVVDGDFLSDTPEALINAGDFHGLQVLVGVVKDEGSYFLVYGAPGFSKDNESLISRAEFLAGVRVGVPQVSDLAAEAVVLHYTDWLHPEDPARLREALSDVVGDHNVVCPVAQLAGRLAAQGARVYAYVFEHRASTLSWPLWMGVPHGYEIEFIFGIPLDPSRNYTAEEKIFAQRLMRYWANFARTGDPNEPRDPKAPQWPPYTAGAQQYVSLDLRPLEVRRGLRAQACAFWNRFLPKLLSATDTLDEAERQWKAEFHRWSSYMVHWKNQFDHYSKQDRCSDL

Cn1c(=O)c2c(ncn2C)n(C)c1=O [Caffeine]
delta waves in the striatum (Fisher 344 rats [1]; FIG. 6): minor but statistically conspicuous decrease
delta, theta and beta power in the hippocampus (Fisher 344 rats [1]; FIG. 6): statistically significant attenuation
delta power in the frontal cortex (Fisher 344 rats [1]; FIG. 6, p<0.1): statistically conspicuous attenuation
delta power in the frontal cortex and reticular formation (Fisher 344 rats [1]; from the second hour after administration on): statistically significant increases of delta power
alpha2 power (Fisher 344 rats [1]; last hour, p<0.05 in the reticular formation): increases of alpha2 power were observed except for the striatum
Amplitude (population spike), Single Stimulation ([2]; SS, slices after one week daily dosing, caffeine 0.5 mg/kg, mango leaf extract 25 mg/kg): 1.3 (SS) mv
Amplitude (population spike), Theta Burst Stimulation ([2]; TBS, slices after one week daily dosing, caffeine 0.5 mg/kg, mango leaf extract 25 mg/kg): 3.1 (TBS) mv
pyramidal cell activity ([2]; Table 1 and FIG. 11): significantly smaller effect on such activity than mango leaf extract

O=c1c2cc(O)c(O)cc2oc2cc(O)c([C@@H]3O[C@H](CO)[C@@H](O)[C@H](O)[C@H]3O)c(O)c12 [Mangiferin]
CNS profile (EEG) compared with reference substances (Fisher 344 rats [3]): surprisingly similar to the CNS profiles of reference caffeine, citicolin and Guarana
gamma wave activity in the striatum (Fisher 344 rats [4]): not observed
caffeine-type side-effects (nausea, fast or irregular pulse, irritability, loss of concentration) (brain wave activity; even at high servings or doses): none of the well-known side-effects
dose dependence of CNS stimulation beyond a threshold (brain wave activity; in vivo): plateau effect
calming activity when ingested (brain wave activity; unlike caffeine): calming, de-stressing activity
acetylcholinesterase inhibition (acetylcholinesterase): acetylcholinesterase inhibiting activity
MAOA inhibition (MAOA): inhibition of MAOA

— patent US11376294B2, “Mangiferin-containing compositions for improving sports performance” (priority 2016, dated 2022)
